# Laboratory results taken from paper PMC9923724, “Half sandwich-type osmium, ruthenium, iridium and rhodium complexes with bidentate glycosyl heterocyclic ligands induce cytostasis in platinum-resistant ovarian cancer cells and bacteriostasis in Gram-positive multiresistant bacteria” (Frontiers in Chemistry, 2023).
# Legend:
# [1] = Determination of the distribution coefficients (logD); type: physicochemical; conditions: distribution coefficient
# [2] = tested on: Enterococcus faecalis (ATCC29212); assay: Broth microdilution MIC, Enterococcus faecalis reference strain; type: cell-based; conditions: Enterococcus faecalis ATCC29212, 24 h
# Procedure: (§1) The MIC values of the complexes were determined against the reference strains of S. aureus (ATCC29213) and E. faecalis. (ATCC29212) and against clinical VRE and MRSA isolates by microdilution assays (repeated at least twice in duplicates) as described in Materials and Methods. The numbers indicate how many isolates were susceptible to the compound out of those tested; i.e., 1/6 stands for 1 isolate was susceptible out of 6 tested. […] Cells were harvested and lysed. Cellular proteins was separated on a 10% SDS-PAGE gel and were blotted. Blots were probed with 4HNE antibody (top blot), the lower blot was stained with amido black. Arrows point at band of interest. Experiments were repeated three times and a representative blot is shown. On the blots brightness and contrast were adjusted. […] Each was matched to a substance and strain by its position over the x-axis categories. / Ir-7: ND and 0/3 (left plot) and ND and 0/6 (right plot) were matched to E. faecalis/VRE and S. aureus/MRSA by position only.
# (§2) We used the reference strains of Staphylococcus aureus (ATCC29213), and Enterococcus faecalis (ATCC29212) that were purchased from ATCC (Manassas, VA, United States).
# (§3) Microdilution experiments were performed according to the standards of EUCAST ([EUCAST, 2021]). […] The inoculated plates were incubated for 24 h at 37°C then were assessed visually. […] All experiments were performed at least twice in duplicates.
# [3] = tested on: Staphylococcus aureus (ATCC29213); assay: Broth microdilution MIC, Staphylococcus aureus reference strain; type: cell-based; conditions: Staphylococcus aureus ATCC29213, 24 h
# Procedure: as §1, §2, §3
# [4] = tested on: 4HNE formation in Staphylococcus aureus reference strain; assay: Western blot for 4HNE in Staphylococcus aureus reference strain; type: cell-based; conditions: at MIC (Ru-7 10 μM, Os-7 20 µM), 15 min, 30 min, 1 h; band ∼50 kDa
# Procedure: The MIC values of the complexes were determined against the reference strains of S. aureus (ATCC29213) and E. faecalis. (ATCC29212) and against clinical VRE and MRSA isolates by microdilution assays (repeated at least twice in duplicates) as described in Materials and Methods. The numbers indicate how many isolates were susceptible to the compound out of those tested; i.e., 1/6 stands for 1 isolate was susceptible out of 6 tested. […] Cells were harvested and lysed. Cellular proteins was separated on a 10% SDS-PAGE gel and were blotted. Blots were probed with 4HNE antibody (top blot), the lower blot was stained with amido black. Arrows point at band of interest. Experiments were repeated three times and a representative blot is shown. On the blots brightness and contrast were adjusted. […]
# SDS-polyacrylamide gel electrophoresis and Western blot was performed as in ([Márton et al., 2018]) using an antibody against 4HNE (Abcam (ab46545) 1:1000) that was detected using a corresponding peroxidase-conjugated secondary antibody (1:10000, Cell Signaling Technology, Inc., Beverly, MA, United States). […] ECL and amido black pictures were captured using the ChemiDoc Touch Imaging System (Bio-Rad Laboratories, Inc., Hercules, California, United States) and the pictures were evaluated using the Image Lab software (Bio-Rad).
SMILES,LogD [1],"MIC, Reference E. faecalis [2] [µM]","MIC, Reference S. aureus [3] [µM]",4HNE formation in Staphylococcus aureus reference strain [4]
Cc1ccc(C(C)C)cc1.F[P-](F)(F)(F)(F)F.O=C(OCC1OC(n2cc(-c3ccc4ccccc4n3)nn2)C(OC(=O)c2ccccc2)C(OC(=O)c2ccccc2)C1OC(=O)c1ccccc1)c1ccccc1.[Cl][Os+] (mixture of isomers) [Os-7],2.33,10,20,induced 4HNE formation
Cc1ccc(C(C)C)cc1.F[P-](F)(F)(F)(F)F.O=C(OCC1OC(n2cc(-c3ccc4ccccc4n3)nn2)C(OC(=O)c2ccccc2)C(OC(=O)c2ccccc2)C1OC(=O)c1ccccc1)c1ccccc1.[Cl][Ru+] (mixture of isomers) [Ru-7],,5,10,induced 4HNE formation
